Data on one compound can be found in patent US20070021351A1, “Liver/plasma concentration ratio for dosing hepatitis C virus protease inhibitor” (Schering Corporation, priority 2005, published 2007).

The test system of data set [1] is HCV replicon (bicistronic subgenomic replicon, genotype 1b). Put plainly: HCV replicon system, 72 hour assay in HuH-7 cells. The class given is cell-based. The text has this:
Changes in replicon RNA level are compared to an internal control, such as cellular glyceraldehydes-3-phosphate dehydrogenas (GAPDH) messenger RNA levels, in a single-tube multiplex reaction. […] Therefore, it is contemplated that compound of Formula Ia administration to a subject in need thereof according to the present invention results in about a 0.5- to about 4.0-log decrease in viral load RNA levels, preferably about a 1.0- to about 3.0-log decrease in viral load RNA.
Replicon systems are well-established surrogates for viral replication as there is no HCV viral culture system. The HCV replicon is a non-infectious genotype 1b viral genome in which the sequences encoding the structural proteins at the 5′ end of the RNA have been replaced by a selectable marker, neoR.
NS3-mediated cleavage of the HCV polyprotein releases functional viral proteins essential for viral propagation. Therefore, blockage of NS3 protease activity by compound of Formula Ia is expected to inhibit viral replication in infected host cells.

The nature of data set [2]: Liver versus plasma concentration in monkeys (non-GLP assay). Type of data set: in vivo. To be noted: about 24 hours after dosing. On the procedure: For the purpose of the present invention and the data presented herein, the liver to plasma ratio is calculated by determining the IC90 of a compound and inferring the concentration of the compound in the liver based on the concentration of the compound which causes a 90% decrease in viral load. […] It is known that concentrations of the compounds of Formulae I-XXVI in the liver of rats are about thirty to fifty times greater than plasma concentrations, whereas concentrations in the brain are below detection. In monkeys, concentration of the compound of Formula Ia determined by non-GLP assay of plasma sample taken about 24 hours after dosing of the compound was about five times greater in the liver than in plasma.

Data set [3] in a line: Tissue distribution. The class given is in vivo. Conditions: liver as well as extra-hepatic sites.
The nature of data set [4]: Pharmacokinetic parameter values on administration to a subject (summary). The class given is in vivo. On the procedure: When the compounds are administered in fed subjects the bioavailability of the compound is increased about 100% and the mean Tmax of the compound of Formula Ia is increased about 60%.
Data set [5] can be described thus: Example 3: multiple-dose (14 days) pharmacokinetics in HCV positive subjects. The class given is in vivo, human. On the procedure: Multiple escalating doses of compound of Formula Ia were administered for 14 days to HCV positive subjects who were genotype 1 Interferon-a (with or without ribavirin) non responders. In a randomized, placebo controlled, third party blind study, multiple doses of 100 mg BID, 200 mg BID, 400 mg BID, 400 mg TID, and 600 mg TID of compound of Formula Ia or placebo in a 3:1 ratio with or without food were evaluated.
• Group 1: Compound of Formula Ia 100 mg (2×50 mg) BID or matching placebo×14 days without food. • Group 2: Compound of Formula Ia 200 mg (2×100 mg) BID or matching placebo×14 days without food. • Group 3: Compound of Formula Ia 400 mg (4×100 mg) BID or matching placebo×14 days without food. • Group 4: Compound of Formula Ia 400 mg (4×100 mg) TID or matching placebo×14 days without food. • Group 5: Compound of Formula Ia 400 mg (4×100 mg) BID or matching placebo×14 days with food. • Group 6: Compound of Formula Ia 600 mg (6×100 mg) BID or matching placebo×14 days without food. • Group 7: Compound of Formula Ia 600 mg (6×100 mg) BID or matching placebo×14 days with food. • Group 8: compound of Formula Ia 600 mg (6×100 mg) TID or matching placebo×14 days without food. • Group 9: compound of Formula Ia intermediate dose or matching placebo×14 days with or without food.
Each subject was randomized to one treatment group. On Day 14, only the AM dose was administered.
For Cohorts Without Food: Treatments were administered on the morning (approximately 8 AM) of Days 1 and 14 following a 10 hour fast. Fasting continued until 4 hours postdose. Water was allowed during the fasting period. On the nonpharmacokinetic collection days (Days 2 through 13) breakfast and dinner were consumed either 90 minutes before or 90 minutes after each dose. All treatments were administered with approximately 240 mL of noncarbonated water. All doses on Days 1-14 were administered at approximately the same time each day, for cohorts with BID dosing study treatment were administered approximately 12 hours apart at 8 AM and 8 PM, and for cohorts with TID dosing study treatment were administered approximately 8 hours apart at 8 AM, 4 PM, and 12 Midnight.
For Cohorts With TID Dosing: All volunteers were dosed three times daily at approximately the same time each day; the doses were administered approximately 8 hours apart at 8 AM, 4 PM, and 12 Midnight.
For Cohorts With BID Dosing: All volunteers were dosed twice a day at approximately the same time each day. The doses were administered approximately 12 hours apart at 8 AM and 8 PM.
On Day 14, all subjects received only their assigned AM dose. During the dosing the capsule(s) were swallowed whole, not chewed or crushed. After dosing, the oral cavity was inspected to assure the volunteer had completely swallowed the capsule(s). […] Water was permitted throughout the fasting and nonfasting periods. […]
The plasma concentration data of compound of Formula Ia was used to estimate the following pharmacokinetic parameters: • Cmax—Maximum observed plasma concentration; • Tmax—Time of observed maximum plasma concentration; • AUC(O-t)—Area under the plasma concentration-time curve over the dosing interval • AUC (tf)—Area under the plasma concentration-time curve to the final quantifiable sample • CL/F—Apparent total body clearance. • t½—Terminal phase half life • Vd/F—Apparent volume of distribution • R—Accumulation ratio […]

Data set [6] has as its system HCV-RNA viral load (genotype 1). In words: Example 3: pharmacodynamics, effect on HCV-RNA viral load. To be noted: 400 mg TID. Type of data set: in vivo. Here is the method:
Multiple escalating doses of compound of Formula Ia were administered for 14 days to HCV positive subjects who were genotype 1 Interferon-a (with or without ribavirin) non responders. In a randomized, placebo controlled, third party blind study, multiple doses of 100 mg BID, 200 mg BID, 400 mg BID, 400 mg TID, and 600 mg TID of compound of Formula Ia or placebo in a 3:1 ratio with or without food were evaluated. […]
Serial HCV-RNA data were evaluated for antiviral activity and for the change from baseline in the serum HCV RNA levels.

[7] abbreviates: human, plasma, oral, summary range, dose not stated.

`CC(C)(C)NC(=O)N[C@H](C(=O)N1C[C@H]2[C@@H]([C@H]1C(=O)NC(CC1CCC1)C(=O)C(N)=O)C2(C)C)C(C)(C)C` (mixture of isomers) [Formula Ia, (1R,5S)-N-[3-Amino-1-(Cyclobutylmethyl)-2,3-Dioxopropyl]-3-[2(S)-[[[(1,1-Dimethylethyl)Amino]Carbonyl]Amino]-3,3-Dimethyl-1-Oxobutyl]-6,6-Dimethyl-3-Azabicyclo[3.1.0]Hexan-2(S)-Carboxamide]: the IC50 in data set [1] (Hepatitis C virus, Huh-7, 72 h, read-out: IC50 for suppression of the HCV replicon) is ≤ 200 nM. Also, the IC90 in data set [1] (Hepatitis C virus, Huh-7, 72 h, read-out: IC90 for suppression of the HCV replicon) was ≤ 400 nM. Further, in data set [1] (exposure to 12×IC90 (5 μM)), the “replicon RNA decrease compared with 6×IC90” value is listed as “comparable results”. For the same compound, the “concentration in liver relative to plasma” value in data set [2] is reported as “about five”. In addition, the tissue distribution entry in data set [3] is given as “distributes widely throughout the tissues of the body”. In addition, in data set [4] (fed subjects), the increase of bioavailability result was “about 100%” and the “increase of mean Tmax” value was “about 60%”. In data set [4] (setting [7]), the peak concentration (Cmax) was 50 to 800 ng/mL, the Tmax was in the range of 1 to 5 h, the Vd/F is 1500 to 6000 L and the half-life lay within 2 to 15 h. Besides, the AUC(0-t) in data set [4] (human, plasma, oral, summary range, dose not stated, read-out: AUC(0-8 hr)) is 500 to 3000 ng·h/mL. The “mean accumulation ratio for BID dosing” value in data set [5] (BID dosing, 14 days) was 1. The Cmax in data set [5] (Day 14, 400 mg BID without food, mean, n=11) was 459 ng/mL. Further, in data set [5] (Day 14, 400 mg BID, mean, n=11), the “AUC(0-12 hr)” value turned out to be 1644 ng·h/mL. The concentration at 11 day in data set [5] (human, plasma, multiple oral dosing, read-out: steady-state level (trough, Cmin)) was ~200 ng/mL. Moreover, the “time at which steady-state levels were reached” value in data set [5] (trough data (Cmin)) was ~11 days. In addition, in data set [6] (100 mg BID, 200 mg BID, 400 mg BID, all subjects), the “dose dependence of antiviral activity” value is on record as “antiviral activity increased in a dose-related manner”. In addition, in data set [6] (14 days, genotype 1 interferon non responders), the “viral load reduction from baseline, average minimum reduction” value is listed as 2 logs.
